From patent US6548506B2, “Benzo[1,8]naphthyridine derivatives, their preparation and pharmaceutical compositions which comprise them” (Aventis Pharma S.A., priority 1998, dated 2003) come the findings set out here.

Assay type in all cases: in vivo
Series [1] can be described thus: 2-week topical application to nasal mucous membrane of rabbit, toxicity. To be noted: 2 weeks topical application b.i.d., composition at about 2%.
Series [2] is described as follows: 2-week topical application toxicity in rat. Particulars: 2 weeks topical application b.i.d., composition at about 2, about 5 and about 10%.
Series [3] relates to Staphylococcus aureus ATCC 25923. In words: Model of infection of the guinea-pig with Staphylococcus aureus ATCC 25923. Particulars: about 2% in a cetomacrogol and benzyl alcohol formulation; guinea-pig infected with S. aureus ATCC 25923.
The test system of series [4] is Staphylococcus aureus AS 5155. The experiment in a line: Model of experimental infection of the guinea pig with Staphylococcus aureus AS 5155. To be noted: about 2%; guinea pig infected with S. aureus AS 5155, resistant to meticillin, MLSB and quinolones.

Turning to `Cn1cc(C(=O)O)c(=O)c2cc3cc(F)c(N4CCN(c5ccc(F)cc5)CC4)cc3nc21` [Example 1, 7-Fluoro-8-[4-(4-fluorophenyl)piperazin-1-yl]-1-methyl-4-oxo-1,4-dihydrobenzo[b][1,8]-naphthyridine-3-carboxylic Acid], the toxic effect entry in series [1] and in series [2] was “no toxic effect was observed” in each case. In addition, the in vivo activity entry in series [3] and in series [4] was “active” in each case.
